Reference: patent US4988687A, “Cephalosporin derivatives, and antibacterial agents” (priority 1986, dated 1991)
≈ marks a conversion by molar mass, not a printed value. Like-named read-outs stand apart in the source and are kept apart here.

How the values were obtained:
[1] = system: K. pneumoniae No. 42; experiment: agar plate dilution method, MIC against K. pneumoniae No. 42; type: cell-based; conditions: Klebsiella pneumoniae, read-out: Minimum Inhibitory Concentration (MIC)
Protocol: (§1) The in vitro antibacterial activities of the compounds of the present invention against various microorganisms, were measured by the following agar plate dilution method. One platinum loopfull of each test microorganism incubated overnight in Mueller Hinton broth, was inoculated to Mueller Hinton agar (inoculum size: 10^6 CFU/ml) Such culture media containing various antibiotics in various concentrations were prepared After incubation at 37° C. for 16 hours, the minimum inhibitory concentrations (MIC: μg/ml) were measured. As comparative compounds, cefotaxime, oeftazidime and the compounds disclosed in Example 2 of Japanese Unexamined Patent Publication No. 215690/1985 e.g. sodium 7-[2-(2-aminothiazol-4-yl)-2-ethoxyiminoacetamido]-3-(1-carboxylatemethylpyridinio-4-yl)thiomethyl-3-cephem-4-carboxylate (hereinafter referred to simply as "Reference Example A") were employed.

[2] = system: Ps. maltophilia GN 12873; experiment: agar plate dilution method, MIC against Ps. maltophilia GN 12873; type: cell-based, Pseudomonas maltophilia; conditions: Stenotrophomonas maltophilia, read-out: Minimum Inhibitory Concentration (MIC)
Protocol: as §1

[3] = system: S. aureus 209P NIHJ-JC1; experiment: agar plate dilution method, MIC against S. aureus 209P NIHJ-JC1; type: cell-based; conditions: Staphylococcus aureus, 16 h, read-out: Minimum Inhibitory Concentration (MIC)
Protocol: as §1

[4] = system: E. coli CSH2 (RK1); experiment: agar plate dilution method, MIC against E. coli CSH2 (RK1); type: cell-based; conditions: Escherichia coli, 16 h, read-out: Minimum Inhibitory Concentration (MIC)
Protocol: as §1

[5] = system: M. luteus ATCC9341; experiment: agar plate dilution method, MIC against M. luteus ATCC9341; type: cell-based; conditions: Micrococcus luteus, ATCC9341, 16 h, read-out: Minimum Inhibitory Concentration (MIC)
Protocol: as §1

[6] = system: S. aureus JS1; experiment: agar plate dilution method, MIC against S. aureus JS1; type: cell-based; conditions: Staphylococcus aureus, read-out: Minimum Inhibitory Concentration (MIC)
Protocol: as §1

[7] = system: C. freundii GN346; experiment: agar plate dilution method, MIC against C. freundii GN346; type: cell-based; conditions: Citrobacter freundii, read-out: Minimum Inhibitory Concentration (MIC)
Protocol: as §1

[8] = system: E. cloacae 963; experiment: agar plate dilution method, MIC against E. cloacae 963; type: cell-based; conditions: read-out: Minimum Inhibitory Concentration (MIC)
Protocol: as §1

[9] = system: P. vulgaris HX-19; experiment: agar plate dilution method, MIC against P. vulgaris HX-19; type: cell-based; conditions: Proteus vulgaris, HX19, 16 h, read-out: Minimum Inhibitory Concentration (MIC)
Protocol: as §1

[10] = system: K. oxytoca GN10650; experiment: agar plate dilution method, MIC against K. oxytoca GN10650; type: cell-based; conditions: Klebsiella oxytoca, read-out: Minimum Inhibitory Concentration (MIC)
Protocol: as §1

[11] = system: K. pneumoniae PCI-602; experiment: agar plate dilution method, MIC against K. pneumoniae PCI-602; type: cell-based; conditions: Klebsiella pneumoniae, PCI602, 16 h, read-out: Minimum Inhibitory Concentration (MIC)
Protocol: as §1

[12] = system: S. marcescens No. 16-2; experiment: agar plate dilution method, MIC against S. marcescens No. 16-2; type: cell-based; conditions: Serratia marcescens, NO.162, 16 h, read-out: Minimum Inhibitory Concentration (MIC)
Protocol: as §1

[13] = system: Ps. aeruginosa AK 109; experiment: agar plate dilution method, MIC against Ps. aeruginosa AK 109; type: cell-based; conditions: Pseudomonas aeruginosa, AK109, 16 h, read-out: Minimum Inhibitory Concentration (MIC)
Protocol: as §1

[14] = system: S. marcescens IAM 1184; experiment: agar plate dilution method, MIC against S. marcescens IAM 1184; type: cell-based; conditions: Serratia marcescens, IAM1184, 16 h, read-out: Minimum Inhibitory Concentration (MIC)
Protocol: as §1

[15] = system: A. calcoaceticus No. 4; experiment: agar plate dilution method, MIC against A. calcoaceticus No. 4; type: cell-based; conditions: Acinetobacter calcoaceticus, read-out: Minimum Inhibitory Concentration (MIC)
Protocol: as §1

[16] = system: E. cloacae Nek 39; experiment: agar plate dilution method, MIC against E. cloacae Nek 39; type: cell-based; conditions: Enterobacter cloacae, read-out: Minimum Inhibitory Concentration (MIC)
Protocol: as §1

[17] = system: P. vulgaris No. 33; experiment: agar plate dilution method, MIC against P. vulgaris No. 33; type: cell-based; conditions: Proteus vulgaris, NO.33, 16 h, read-out: Minimum Inhibitory Concentration (MIC)
Protocol: as §1

[18] = system: Ps. cepacia 23; experiment: agar plate dilution method, MIC against Ps. cepacia 23; type: cell-based, Pseudomonas cepacia; conditions: read-out: Minimum Inhibitory Concentration (MIC)
Protocol: as §1

[19] = system: M. morganii GN5407; experiment: agar plate dilution method, MIC against M. morganii GN5407; type: cell-based; conditions: Morganella morganii, read-out: Minimum Inhibitory Concentration (MIC)
Protocol: as §1

[20] = system: E. coli CSH(RE45); experiment: agar plate dilution method, MIC against E. coli CSH(RE45); type: cell-based; conditions: Escherichia coli, 16 h, read-out: Minimum Inhibitory Concentration (MIC)
Protocol: as §1

[21] = system: Ps. aeruginosa AKR17; experiment: agar plate dilution method, MIC against Ps. aeruginosa AKR17; type: cell-based; conditions: Pseudomonas aeruginosa; Ps. aeruginosa AKR17; 10^6 CFU/ml, 37° C., 16 hours; read-out: Minimum Inhibitory Concentration (MIC)
Protocol: as §1

[22] = system: C. freundii GN346/16; experiment: agar plate dilution method, MIC against C. freundii GN346/16; type: cell-based; conditions: Citrobacter freundii, read-out: Minimum Inhibitory Concentration (MIC)
Protocol: as §1

[23] = system: S. epidermidis IAM12012; experiment: agar plate dilution method, MIC against S. epidermidis IAM12012; type: cell-based; conditions: Staphylococcus epidermidis, IAM12012, 16 h, read-out: Minimum Inhibitory Concentration (MIC)
Protocol: as §1

[24] = system: E. coli GN5482; experiment: agar plate dilution method, MIC against E. coli GN5482; type: cell-based; conditions: Escherichia coli, read-out: Minimum Inhibitory Concentration (MIC)
Protocol: as §1

[25] = system: E. coli NIHJ JC2; experiment: agar plate dilution method, MIC against E. coli NIHJ JC2; type: cell-based; conditions: Escherichia coli, read-out: Minimum Inhibitory Concentration (MIC)
Protocol: as §1

[26] = system: S. aureus BB5703; experiment: agar plate dilution method, MIC against S. aureus BB5703; type: cell-based; conditions: Staphylococcus aureus, read-out: Minimum Inhibitory Concentration (MIC)
Protocol: as §1

[27] = system: Ps. aeruginosa IFO3445; experiment: agar plate dilution method, MIC against Ps. aeruginosa IFO3445; type: cell-based; conditions: Pseudomonas aeruginosa, read-out: Minimum Inhibitory Concentration (MIC)
Protocol: as §1

## CC(C)(O/N=C(\C(=O)N[C@@H]1C(=O)N2C(C(=O)[O-])=C(C[n+]3ccccc3)CS[C@H]12)c1csc(N)n1)C(=O)O [Ceftazidime, ceftazidime, reference compound]
[1]; NO.42, 16 h
  MIC: 0.39 µg/mL (≈ 0.714 µM)
[2]; GN12873, 16 h
  MIC: 100 µg/mL (≈ 183 µM)
[3]
  MIC: 6.25 µg/mL (≈ 11.4 µM)
[4]
  MIC: 0.1 µg/mL (≈ 0.183 µM)
[5]
  MIC: 0.78 µg/mL (≈ 1.43 µM)
[6]; JS1, 16 h
  MIC: 25 µg/mL (≈ 45.7 µM)
[7]; GN346, 16 h
  MIC: 25 µg/mL (≈ 45.7 µM)
[8]; Enterobacter cloacae, 963, 16 h
  MIC: 0.2 µg/mL (≈ 0.366 µM)
[9]
  MIC: 0.025 µg/mL (≈ 0.0457 µM)
[10]; GN10650, 16 h
  MIC: 0.2 µg/mL (≈ 0.366 µM)
[11]
  MIC: < 0.006 µg/mL
[12]
  MIC: 1.56 µg/mL (≈ 2.85 µM)
[13]
  MIC: 1.56 µg/mL (≈ 2.85 µM)
[14]
  MIC: 0.025 µg/mL (≈ 0.0457 µM)
[15]; NO.4, 16 h
  MIC: 6.25 µg/mL (≈ 11.4 µM)
[16]; NEK39, 16 h
  MIC: 3.12 µg/mL (≈ 5.71 µM)
[17]
  MIC: 0.05 µg/mL (≈ 0.0915 µM)
[18]; Burkholderia cepacia, Ps. cepacia 23, 10^6 CFU/ml, 37° C., 16 hours
  MIC: 0.78 µg/mL (≈ 1.43 µM)
[19]; GN5407, 16 h
  MIC: 0.1 µg/mL (≈ 0.183 µM)
[20]
  MIC: 0.1 µg/mL (≈ 0.183 µM)
[21]
  MIC: > 100 µg/mL
[22]; GN346, 16 h
  MIC: 0.2 µg/mL (≈ 0.366 µM)
[23]
  MIC: 3.12 µg/mL (≈ 5.71 µM)
[24]; GN5482, 16 h
  MIC: 1.56 µg/mL (≈ 2.85 µM)
[25]; NIHJJC2, 16 h
  MIC: 0.2 µg/mL (≈ 0.366 µM)
[26]; BB5703, 16 h
  MIC: 12.5 µg/mL (≈ 22.9 µM)
[27]; Ps. aeruginosa IFO3445, 10^6 CFU/ml, 37° C., 16 hours
  MIC: 0.39 µg/mL (≈ 0.714 µM)

## C=C(O/N=C(\C(=O)NC1C(=O)N2C(C(=O)[O-])=C(CSc3cc[n+](CC(=O)O)cc3)CSC12)c1csc(N)n1)C(=O)O (stereo not drawn) [Example 1, 7-[2-(2-aminothiazol-4-yl)-2-(1-carboxy-1-vinyloxyimino)acetamido]-3-(1-carboxymethylpyridinio-4-yl)thiomethyl-4-carboxylate (syn-isomer)]
[1]; K. pneumoniae No. 42 (lactamase-producing strain), 10^6 CFU/ml, 37° C., 16 hours
  MIC: 0.2 µg/mL (≈ 0.322 µM)
[2]; GN12873, Ps. maltophilia GN 12873 (lactamase-producing strain), 10^6 CFU/ml, 37° C., 16 hours
  MIC: > 100 µg/mL
[3]
  MIC: 3.12 µg/mL (≈ 5.03 µM)
[4]
  MIC: 0.05 µg/mL (≈ 0.0806 µM)
[5]
  MIC: 1.56 µg/mL (≈ 2.51 µM)
[6]; S. aureus JS1 (methicilline resistant; lactamase-producing strain), 10^6 CFU/ml, 37° C., 16 hours
  MIC: 50 µg/mL (≈ 80.6 µM)
[7]; C. freundii GN346 (lactamase-producing strain), 10^6 CFU/ml, 37° C., 16 hours
  MIC: 25 µg/mL (≈ 40.3 µM)
[8]; Enterobacter cloacae, E. cloacae 963, 10^6 CFU/ml, 37° C., 16 hours
  MIC: 0.1 µg/mL (≈ 0.161 µM)
[9]
  MIC: < 0.006 µg/mL
[10]; K. oxytoca GN10650 (lactamase-producing strain), 10^6 CFU/ml, 37° C., 16 hours
  MIC: 0.2 µg/mL (≈ 0.322 µM)
[11]
  MIC: < 0.006 µg/mL
[12]
  MIC: 1.56 µg/mL (≈ 2.51 µM)
[13]
  MIC: 3.12 µg/mL (≈ 5.03 µM)
[14]
  MIC: < 0.006 µg/mL
[15]; A. calcoaceticus No. 4, 10^6 CFU/ml, 37° C., 16 hours
  MIC: 50 µg/mL (≈ 80.6 µM)
[16]; NEK39, E. cloacae Nek 39 (lactamase-producing strain), 10^6 CFU/ml, 37° C., 16 hours
  MIC: 0.78 µg/mL (≈ 1.26 µM)
[17]
  MIC: 0.0125 µg/mL (≈ 0.0201 µM)
[18]; Burkholderia cepacia, 23, 16 h
  MIC: 1.56 µg/mL (≈ 2.51 µM)
[19]; M. morganii GN5407 (lactamase-producing strain), 10^6 CFU/ml, 37° C., 16 hours
  MIC: 0.0125 µg/mL (≈ 0.0201 µM)
[20]
  MIC: 0.1 µg/mL (≈ 0.161 µM)
[21]
  MIC: > 100 µg/mL
[22]; C. freundii GN346/16, 10^6 CFU/ml, 37° C., 16 hours
  MIC: 0.1 µg/mL (≈ 0.161 µM)
[23]
  MIC: 1.56 µg/mL (≈ 2.51 µM)
[24]; E. coli GN5482 (lactamase-producing strain), 10^6 CFU/ml, 37° C., 16 hours
  MIC: 0.2 µg/mL (≈ 0.322 µM)
[25]; NIHJJC2, E. coli NIHJ JC2, 10^6 CFU/ml, 37° C., 16 hours
  MIC: 0.1 µg/mL (≈ 0.161 µM)
[26]; S. aureus BB5703, 10^6 CFU/ml, 37° C., 16 hours
  MIC: 25 µg/mL (≈ 40.3 µM)
[27]; IFO3445, 16 h
  MIC: 1.56 µg/mL (≈ 2.51 µM)
